Results taken from US9365522B2, “Pyrazole amide derivative” (AMGEN INC., priority 2015, dated 2016).

Molecular target: T1, ligand binding domain of human ROR gamma (Homo sapiens, UniProt P51449)
T1 construct: NM_001001523; expressed in transfected cells; host or cells: HEK293T
T1 sequence (P51449 247-497 isoform P51449-2): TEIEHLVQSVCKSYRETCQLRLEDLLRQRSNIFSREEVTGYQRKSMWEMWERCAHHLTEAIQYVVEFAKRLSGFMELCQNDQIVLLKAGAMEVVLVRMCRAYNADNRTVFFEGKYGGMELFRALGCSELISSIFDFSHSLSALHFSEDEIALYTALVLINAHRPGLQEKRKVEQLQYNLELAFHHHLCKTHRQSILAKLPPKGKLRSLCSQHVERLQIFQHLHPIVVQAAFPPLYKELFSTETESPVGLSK
Assay: ROR gamma reporter gene assay (GAL4-RORγ LBD luciferase, Dual-Glo)
Format: cell-based
Settings: HEK293T cells transfected with pM-ROR gamma, 8 concentrations 3.5 nM to 10.5 μM, 24 h incubation; read-out: result (pIC50, inhibition of RORγ transcriptional activity) (converted)
Procedure, shortened: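 Transient GAL4-RORγ LBD (aa 247-497) / 5×UAS-luc / pRL-CMV cotransfection in HEK293T, charcoal-stripped 10% FBS. 8-pt dose, 3.5 nM–10.5 μM, 0.075% DMSO final. 24 h, 37 °C, 5% CO2. Dual-Glo firefly/renilla readout; pIC50 from curve fit.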

SMILES | IC50
O=C(CN(CC1(F)CCCC1)C(=O)c1cnn([C@H]2CC[C@H](C(=O)O)CC2)c1C(F)(F)F)c1c(Cl)cncc1Cl [Example 194, trans-4-(4-((2-(3,5-dichloropyridin-4-yl)-2-oxoethyl)-((1-fluorocyclopentyl)methyl)carbamoyl)-5-(trifluoromethyl)pyrazol-1-yl)cyclohexane-1-carboxylic acid] | 14100 pM
O=C(CN(Cc1ccc(F)cc1)C(=O)c1cnn([C@H]2CC[C@H](C(=O)O)CC2)c1C(F)(F)F)c1c(Cl)cc[nH]c1=O [Example 195, trans-4-(4-((2-(4-chloro-2-oxo-1H-pyridin-3-yl)-2-oxoethyl)-((4-fluorophenyl)methyl)carbamoyl)-5-(trifluoromethyl)pyrazol-1-yl)cyclohexane-1-carboxylic acid] | > 1e+07 pM
CC1(C)CCC(N(CC(=O)c2c(Cl)cncc2Cl)C(=O)c2cnn([C@H]3CC[C@](C)(C(=O)O)CC3)c2C(F)F)CC1 [Example 196, trans-4-(4-((2-(3,5-dichloropyridin-4-yl)-2-oxoethyl)-(4,4-dimethylcyclohexyl)carbamoyl)-5-(difluoromethyl)pyrazol-1-yl)-1-methylcyclohexane-1-carboxylic acid] | 3.47e+06 pM
C[C@]1(C(=O)O)CC[C@H](n2ncc(C(=O)N(CC(=O)c3c(Cl)cc(F)cc3Cl)Cc3cc(F)cc(F)c3)c2C(F)F)CC1 [Example 197, trans-4-(4-((2-(2,6-dichloro-4-fluorophenyl)-2-oxoethyl)-((3,5-difluorophenyl)methyl)carbamoyl)-5-(difluoromethyl)pyrazol-1-yl)-1-methylcyclohexane-1-carboxylic acid] | 513000 pM
O=C(CN(C(=O)c1cnn([C@H]2CC[C@H](C(=O)O)CC2)c1C(F)(F)F)C1CCOC1)c1c(Cl)cncc1Cl (stereo partly drawn) [Example 198, trans-4-(4-((2-(3,5-dichloropyridin-4-yl)-2-oxoethyl)-(oxolan3-yl)carbamoyl)-5-(trifluoromethyl)pyrazol-1-yl)cyclohexane-1-carboxylic acid] | > 1e+07 pM
CC1(C)[C@@H]2C[C@H](N(CC(=O)c3c(Cl)cc(F)cc3Cl)C(=O)c3cnn([C@H]4CC[C@](C)(C(=O)O)CC4)c3C(F)(F)F)C[C@@H]21 [Example 199, trans-4-(4-((2-(2,6-dichloro-4-fluorophenyl)-2-oxoethyl)-((1R,3r,5S)-6,6-dimethyl-3-bicyclo[3.1.0]hexanyl)carbamoyl)-5-(trifluoromethyl)pyrazol-1-yl)-1-methylcyclohexane-1-carboxylic acid] | 5010 pM
O=C(CN(CC1CC2(CC2)C1)C(=O)c1cnn([C@H]2CC[C@H](C(=O)O)CC2)c1C(F)(F)F)c1c(Cl)cncc1Cl [Example 200, trans-4-(4-((2-(3,5-dichloropyridin-4-yl)-2-oxoethyl)-(spiro[2.3]hexan-5-ylmethyl)carbamoyl)-5-(trifluoromethyl)pyrazol-1-yl)cyclohexane-1-carboxylic acid] | 15800 pM
Cn1nc(Cl)c(C(=O)CN(Cc2cc(F)cc(F)c2)C(=O)c2cnn([C@H]3CC[C@H](C(=O)O)CC3)c2C(F)(F)F)c1Cl [Example 201, trans-4-(4-((2-(3,5-dichloro-1-methylpyrazol-4-yl)-2-oxoethyl)-((3,5-difluorophenyl)methyl)carbamoyl)-5-(trifluoromethyl)pyrazol-1-yl)cyclohexane-1-carboxylic acid] | > 1e+07 pM
C[C@]1(C(=O)O)CC[C@H](n2ncc(C(=O)N(CC(=O)c3c(Cl)cc(F)cc3Cl)CC3CC4(CC4)C3)c2C(F)(F)F)CC1 [Example 202, trans-4-(4-((2-(2,6-dichloro-4-fluorophenyl)-2-oxoethyl)-(spiro[2.3]hexan-5-ylmethyl)carbamoyl)-5-(trifluoromethyl)pyrazol-1-yl)-1-methylcyclohexane-1-carboxylic acid] | 7940 pM
CC(C)(C)CC1CC(N(CC(=O)c2c(Cl)cc(F)cc2Cl)C(=O)c2cnn([C@H]3CC[C@](C)(C(=O)O)CC3)c2C(F)(F)F)C1 (stereo partly drawn) [Example 203, trans-4-(4-((2-(2,6-dichloro-4-fluorophenyl)-2-oxoethyl)-(3-(2,2-dimethylpropyl)cyclobutyl)carbamoyl)-5-(trifluoromethyl)pyrazol-1-yl)-1-methylcyclohexane-1-carboxylic acid] | 912000 pM
CC(C1CC2(CC2)C1)N(CC(=O)c1c(Cl)cncc1Cl)C(=O)c1cnn([C@H]2CC[C@H](C(=O)O)CC2)c1C(F)(F)F (stereo partly drawn) [Example 204, trans-4-(4-((2-(3,5-dichloropyridin-4-yl)-2-oxoethyl)-(1-spiro[2.3]hexan-5-ylethyl)carbamoyl)-5-(trifluoromethyl)pyrazol-1-yl)cyclohexane-1-carboxylic acid] | 60300 pM
CC1(C)CCCC(N(CC(=O)c2c(Cl)cncc2Cl)C(=O)c2cnn([C@H]3CC[C@H](C(=O)O)CC3)c2C(F)(F)F)C1 (stereo partly drawn) [Example 205, trans-4-(4-((2-(3,5-dichloropyridin-4-yl)-2-oxoethyl)-(3,3-dimethylcyclohexyl)carbamoyl)-5-(trifluoromethyl)pyrazol-1-yl)cyclohexane-1-carboxylic acid] | 138000 pM
Cc1cc(Cl)c(C(=O)CN(CC#CC(C)(C)C)C(=O)c2cnn([C@H]3CC[C@](C)(C(=O)O)CC3)c2C(F)(F)F)c(Cl)c1 [Example 206, trans-4-(4-((2-(2,6-dichloro-4-methylphenyl)-2-oxoethyl)-(4,4-dimethylpent-2-ynyl)carbamoyl)-5-(trifluoromethyl)pyrazol-1-yl)-1-methylcyclohexane-1-carboxylic acid] | 100000 pM
CC(C)(C)C#CCN(CC(=O)c1c(Cl)cc(Cl)cc1Cl)C(=O)c1cnn([C@H]2CC[C@](C)(C(=O)O)CC2)c1C(F)(F)F [Example 207, trans-4-(4-(4,4-dimethylpent-2-ynyl-(2-oxo-2-(2,4,6-trichlorophenyl)ethyl)carbamoyl)-5-(trifluoromethyl)pyrazol-1-yl)-1-methylcyclohexane-1-carboxylic acid] | 63100 pM
CC1(C)CC(N(CC(=O)c2c(Cl)cncc2Cl)C(=O)c2cnn([C@H]3CC[C@H](C(=O)O)CC3)c2C(F)(F)F)CO1 (stereo partly drawn) [Example 208, trans-4-(4-((2-(3,5-dichloropyridin-4-yl)-2-oxoethyl)-(5,5-dimethyloxolan-3-yl)carbamoyl)-5-(trifluoromethyl)pyrazol-1-yl)cyclohexane-1-carboxylic acid] | 302000 pM
O=C(CN(Cc1cc(F)cc(F)c1)C(=O)c1cnn([C@H]2CC[C@H](C(=O)O)CC2)c1C(F)(F)F)c1c(Cl)n[nH]c1Cl [Example 209, trans-4-(4 ((2-(3,5-dichloro-1H-pyrazol-4-yl)-2-oxoethyl)-((3,5-difluorophenyl)methyl)carbamoyl)-5-(trifluoromethyl)pyrazol-1-yl)cyclohexane-1-carboxylic acid] | > 1e+07 pM
CC1(C#N)CCC(N(CC(=O)c2c(Cl)cncc2Cl)C(=O)c2cnn([C@H]3CC[C@H](C(=O)O)CC3)c2C(F)(F)F)C1 (stereo partly drawn) [Example 210, trans-4-(4-((3-cyano-3-methylcyclopentyl)-(2-(3,5-dichloropyridin-4-yl)-2-oxoethyl)carbamoyl)-5-(trifluoromethyl)pyrazol-1-yl)cyclohexane-1-carboxylic acid] | 1.02e+06 pM
